In the kinase profiling compilation of Christmann-Franck et al. (2016):

Key:
Assay in all cases: KINOMEscan competition binding
Conditions in all cases: compound 10.0 µM
[1] = test system: ABL1 (human), P00519 [Q252H]
[2] = test system: ABL1 (human), P00519 [T315I]
ACVR1B (human) = ACVR1B (human) (UniProt P36896)
AKT3 (human) = AKT3 (human) (UniProt Q9Y243)
ANKK1 (human) = ANKK1 (human) (UniProt Q8NFD2)
CDC42BPA (human) = CDC42BPA (human) (UniProt Q5VT25)
CDK8 (human) = CDK8 (human) (UniProt P49336)
CSNK1A1L (human) = CSNK1A1L (human) (UniProt Q8N752)
DDR1 (human) = DDR1 (human) (UniProt Q08345)
[3] = test system: EGFR (human), P00533 [L858R]
EPHA5 (human) = EPHA5 (human) (UniProt P54756)
EPHB4 (human) = EPHB4 (human) (UniProt P54760)
ERBB2 (human) = ERBB2 (human) (UniProt P04626)
FGFR1 (human) = FGFR1 (human) (UniProt P11362)
FGFR2 (human) = FGFR2 (human) (UniProt P21802)
[4] = target: JAK1 JH1 catalytic (human) (UniProt P23458)
LCK (human) = LCK (human) (UniProt P06239)
MAP2K1 (human) = MAP2K1 (human) (UniProt Q02750)
MAP3K3 (human) = MAP3K3 (human) (UniProt Q99759)
MAPK1 (human) = MAPK1 (human) (UniProt P28482)
MAPK9 (human) = MAPK9 (human) (UniProt P45984)
MARK2 (human) = MARK2 (human) (UniProt Q7KZI7)
MARK4 (human) = MARK4 (human) (UniProt Q96L34)
MLTK (human) = MLTK (human) (UniProt Q9NYL2)
MST4 (human) = MST4 (human) (UniProt Q9P289)
MYLK2 (human) = MYLK2 (human) (UniProt Q9H1R3)
NEK1 (human) = NEK1 (human) (UniProt Q96PY6)
PAK4 (human) = PAK4 (human) (UniProt O96013)
PRKD2 (human) = PRKD2 (human) (UniProt Q9BZL6)
PRKG1 (human) = PRKG1 (human) (UniProt Q13976)
PRKX (human) = PRKX (human) (UniProt P51817)
SGK110 (human) = SGK110 (human) (UniProt P0C264)
SIK2 (human) = SIK2 (human) (UniProt Q9H0K1)
STK10 (human) = STK10 (human) (UniProt O94804)
STK32C (human) = STK32C (human) (UniProt Q86UX6)
STK36 (human) = STK36 (human) (UniProt Q9NRP7)
STK38L (human) = STK38L (human) (UniProt Q9Y2H1)
TESK1 (human) = TESK1 (human) (UniProt Q15569)
TLK2 (human) = TLK2 (human) (UniProt Q86UE8)
TNK2 (human) = TNK2 (human) (UniProt Q07912)
TNNI3K (human) = TNNI3K (human) (UniProt Q59H18)
TSSK1B (human) = TSSK1B (human) (UniProt Q9BXA7)

Chain of MAPK1 (human) (P28482 whole entry, looked up): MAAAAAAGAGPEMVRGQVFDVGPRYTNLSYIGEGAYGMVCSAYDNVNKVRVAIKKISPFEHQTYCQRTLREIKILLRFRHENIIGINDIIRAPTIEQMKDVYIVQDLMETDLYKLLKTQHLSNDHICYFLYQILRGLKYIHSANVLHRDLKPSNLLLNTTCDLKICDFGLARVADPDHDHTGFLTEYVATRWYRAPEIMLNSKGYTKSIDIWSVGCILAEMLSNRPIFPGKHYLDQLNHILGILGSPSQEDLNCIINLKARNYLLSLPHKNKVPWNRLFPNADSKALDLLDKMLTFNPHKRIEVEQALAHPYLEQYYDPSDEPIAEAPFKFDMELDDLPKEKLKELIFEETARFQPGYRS
Chain of DDR1 (human) (Q08345 whole entry, looked up): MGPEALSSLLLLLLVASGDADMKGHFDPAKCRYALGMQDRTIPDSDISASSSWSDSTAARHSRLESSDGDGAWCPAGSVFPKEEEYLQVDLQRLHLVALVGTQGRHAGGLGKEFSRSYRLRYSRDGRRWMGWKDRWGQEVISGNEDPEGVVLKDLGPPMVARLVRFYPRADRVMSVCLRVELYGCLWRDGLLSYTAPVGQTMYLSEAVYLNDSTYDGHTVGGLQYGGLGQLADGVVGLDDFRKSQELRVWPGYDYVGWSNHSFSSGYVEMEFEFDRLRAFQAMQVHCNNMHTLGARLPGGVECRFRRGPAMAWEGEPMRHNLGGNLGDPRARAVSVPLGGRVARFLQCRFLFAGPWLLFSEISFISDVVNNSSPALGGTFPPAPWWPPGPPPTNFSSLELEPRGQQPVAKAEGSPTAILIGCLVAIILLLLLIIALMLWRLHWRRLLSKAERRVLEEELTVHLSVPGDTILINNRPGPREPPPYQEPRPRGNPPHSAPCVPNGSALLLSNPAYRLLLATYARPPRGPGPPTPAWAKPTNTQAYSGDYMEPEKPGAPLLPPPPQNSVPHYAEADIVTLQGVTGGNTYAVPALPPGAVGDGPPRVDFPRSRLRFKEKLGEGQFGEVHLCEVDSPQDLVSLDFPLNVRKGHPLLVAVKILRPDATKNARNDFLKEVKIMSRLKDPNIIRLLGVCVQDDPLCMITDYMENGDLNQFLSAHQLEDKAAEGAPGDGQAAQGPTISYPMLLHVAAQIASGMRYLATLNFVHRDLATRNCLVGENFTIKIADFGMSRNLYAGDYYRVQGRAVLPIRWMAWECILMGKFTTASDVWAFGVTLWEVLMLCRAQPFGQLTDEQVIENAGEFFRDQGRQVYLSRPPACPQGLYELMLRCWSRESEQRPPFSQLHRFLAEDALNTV
Chain of EPHA5 (human) (P54756 whole entry, looked up): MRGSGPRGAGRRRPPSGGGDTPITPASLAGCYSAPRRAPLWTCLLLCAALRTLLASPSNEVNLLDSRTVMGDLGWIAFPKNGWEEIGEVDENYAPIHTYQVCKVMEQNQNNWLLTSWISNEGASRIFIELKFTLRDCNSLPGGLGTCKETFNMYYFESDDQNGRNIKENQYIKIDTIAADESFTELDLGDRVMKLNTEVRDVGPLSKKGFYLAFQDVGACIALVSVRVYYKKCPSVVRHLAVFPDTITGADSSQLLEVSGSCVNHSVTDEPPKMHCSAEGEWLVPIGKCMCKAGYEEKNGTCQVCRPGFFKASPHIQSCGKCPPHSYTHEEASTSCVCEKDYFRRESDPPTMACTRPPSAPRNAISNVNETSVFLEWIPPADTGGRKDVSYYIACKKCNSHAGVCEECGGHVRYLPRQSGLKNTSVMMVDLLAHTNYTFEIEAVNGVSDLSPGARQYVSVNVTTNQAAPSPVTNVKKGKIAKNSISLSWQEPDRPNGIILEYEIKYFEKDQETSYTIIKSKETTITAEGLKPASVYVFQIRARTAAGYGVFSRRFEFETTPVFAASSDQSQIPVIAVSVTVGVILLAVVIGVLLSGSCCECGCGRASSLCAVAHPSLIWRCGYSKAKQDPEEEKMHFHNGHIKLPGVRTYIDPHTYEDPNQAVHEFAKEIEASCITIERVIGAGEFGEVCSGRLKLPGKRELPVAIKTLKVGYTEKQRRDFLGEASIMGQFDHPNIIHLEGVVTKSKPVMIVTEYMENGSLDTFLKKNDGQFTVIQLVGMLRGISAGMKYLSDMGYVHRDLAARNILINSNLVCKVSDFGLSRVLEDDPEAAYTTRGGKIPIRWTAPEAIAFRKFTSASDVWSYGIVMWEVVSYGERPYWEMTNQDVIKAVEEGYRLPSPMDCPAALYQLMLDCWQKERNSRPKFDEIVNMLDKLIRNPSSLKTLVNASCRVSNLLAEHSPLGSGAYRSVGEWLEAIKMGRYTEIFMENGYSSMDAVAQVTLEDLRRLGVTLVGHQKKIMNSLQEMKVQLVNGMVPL
Chain of MAP3K3 (human) (Q99759 whole entry, looked up): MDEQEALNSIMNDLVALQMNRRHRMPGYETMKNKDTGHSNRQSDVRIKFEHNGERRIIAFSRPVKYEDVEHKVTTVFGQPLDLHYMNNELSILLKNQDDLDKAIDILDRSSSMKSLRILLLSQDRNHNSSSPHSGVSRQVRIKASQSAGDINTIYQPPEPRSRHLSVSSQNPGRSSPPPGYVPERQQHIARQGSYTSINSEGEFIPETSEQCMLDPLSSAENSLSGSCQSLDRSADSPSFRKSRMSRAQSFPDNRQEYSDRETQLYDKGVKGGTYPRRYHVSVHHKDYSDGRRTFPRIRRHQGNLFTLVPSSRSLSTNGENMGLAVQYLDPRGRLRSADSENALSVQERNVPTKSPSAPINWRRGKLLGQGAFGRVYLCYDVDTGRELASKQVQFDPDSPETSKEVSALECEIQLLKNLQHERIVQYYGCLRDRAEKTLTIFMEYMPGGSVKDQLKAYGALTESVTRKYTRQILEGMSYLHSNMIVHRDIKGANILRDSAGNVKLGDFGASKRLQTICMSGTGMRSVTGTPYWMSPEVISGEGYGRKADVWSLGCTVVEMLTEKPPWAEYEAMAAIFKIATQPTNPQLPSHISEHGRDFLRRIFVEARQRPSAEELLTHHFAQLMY
Chain of ACVR1B (human) (P36896 whole entry, looked up): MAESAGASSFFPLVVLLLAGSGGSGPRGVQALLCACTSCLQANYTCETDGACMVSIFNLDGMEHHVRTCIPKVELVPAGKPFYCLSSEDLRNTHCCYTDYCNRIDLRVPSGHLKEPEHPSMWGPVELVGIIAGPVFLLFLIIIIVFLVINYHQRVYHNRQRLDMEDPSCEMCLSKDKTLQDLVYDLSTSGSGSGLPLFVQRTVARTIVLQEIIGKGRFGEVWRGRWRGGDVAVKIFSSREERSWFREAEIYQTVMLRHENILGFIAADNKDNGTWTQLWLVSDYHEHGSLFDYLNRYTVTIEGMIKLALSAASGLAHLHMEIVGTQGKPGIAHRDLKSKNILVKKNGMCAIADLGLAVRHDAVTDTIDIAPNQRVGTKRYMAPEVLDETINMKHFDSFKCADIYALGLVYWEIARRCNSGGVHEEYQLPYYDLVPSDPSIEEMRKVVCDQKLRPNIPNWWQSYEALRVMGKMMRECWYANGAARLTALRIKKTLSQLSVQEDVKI
Chain of MAPK9 (human) (P45984 whole entry, looked up): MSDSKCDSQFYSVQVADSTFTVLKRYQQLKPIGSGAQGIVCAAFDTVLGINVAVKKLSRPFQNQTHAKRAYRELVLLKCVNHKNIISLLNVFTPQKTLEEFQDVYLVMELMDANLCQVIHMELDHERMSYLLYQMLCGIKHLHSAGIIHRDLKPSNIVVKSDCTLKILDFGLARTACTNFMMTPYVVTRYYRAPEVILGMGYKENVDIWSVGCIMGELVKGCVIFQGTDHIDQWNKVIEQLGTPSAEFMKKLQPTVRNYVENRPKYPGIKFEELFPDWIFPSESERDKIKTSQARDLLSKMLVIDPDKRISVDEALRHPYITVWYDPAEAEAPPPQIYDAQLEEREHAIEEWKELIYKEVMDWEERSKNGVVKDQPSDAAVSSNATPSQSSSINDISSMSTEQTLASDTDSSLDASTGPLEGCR
Chain of TLK2 (human) (Q86UE8 whole entry, looked up): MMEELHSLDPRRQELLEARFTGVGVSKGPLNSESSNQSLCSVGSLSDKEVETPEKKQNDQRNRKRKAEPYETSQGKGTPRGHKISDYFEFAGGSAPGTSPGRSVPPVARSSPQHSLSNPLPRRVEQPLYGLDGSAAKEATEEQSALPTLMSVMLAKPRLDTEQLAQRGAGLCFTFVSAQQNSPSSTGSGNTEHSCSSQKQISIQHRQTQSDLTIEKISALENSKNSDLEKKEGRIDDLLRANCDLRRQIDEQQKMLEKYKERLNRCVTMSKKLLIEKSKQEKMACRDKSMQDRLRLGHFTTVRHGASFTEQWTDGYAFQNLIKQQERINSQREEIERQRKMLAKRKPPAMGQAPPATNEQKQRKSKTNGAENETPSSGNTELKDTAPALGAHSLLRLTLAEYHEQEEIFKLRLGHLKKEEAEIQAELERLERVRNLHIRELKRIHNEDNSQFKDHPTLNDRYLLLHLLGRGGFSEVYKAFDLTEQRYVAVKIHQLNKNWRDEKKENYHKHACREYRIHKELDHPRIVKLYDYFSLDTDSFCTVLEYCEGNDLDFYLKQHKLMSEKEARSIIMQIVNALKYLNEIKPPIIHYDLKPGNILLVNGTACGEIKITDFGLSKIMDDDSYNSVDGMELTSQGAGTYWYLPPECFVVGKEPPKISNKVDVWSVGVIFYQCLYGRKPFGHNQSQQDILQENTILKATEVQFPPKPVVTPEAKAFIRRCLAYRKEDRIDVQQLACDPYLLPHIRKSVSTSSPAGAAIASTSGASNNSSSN
Chain of CSNK1A1L (human) (Q8N752 whole entry, looked up): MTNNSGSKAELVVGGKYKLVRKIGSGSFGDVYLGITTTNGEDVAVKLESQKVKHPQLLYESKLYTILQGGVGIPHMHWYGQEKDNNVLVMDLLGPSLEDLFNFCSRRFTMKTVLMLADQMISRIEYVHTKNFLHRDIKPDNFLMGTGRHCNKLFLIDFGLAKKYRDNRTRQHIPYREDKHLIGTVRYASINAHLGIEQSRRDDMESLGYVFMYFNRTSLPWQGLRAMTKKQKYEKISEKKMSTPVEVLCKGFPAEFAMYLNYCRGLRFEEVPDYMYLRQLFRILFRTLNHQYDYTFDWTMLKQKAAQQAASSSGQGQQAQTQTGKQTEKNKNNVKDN

## O=C1NC(=O)/C(=C/c2c[nH]c(=O)c(-c3ccc(N4CCNCC4)nc3)c2)S1
[1]
  kinase still bound, per cent of control: 53%
[2]
  kinase still bound, per cent of control: 57%
ACVR1B (human)
  kinase still bound, per cent of control: 80%
AKT3 (human)
  kinase still bound, per cent of control: 98%
ANKK1 (human)
  kinase still bound, per cent of control: 70%
CDC42BPA (human)
  kinase still bound, per cent of control: 73%
CDK8 (human)
  kinase still bound, per cent of control: 44%
CSNK1A1L (human)
  kinase still bound, per cent of control: 100%
DDR1 (human)
  kinase still bound, per cent of control: 100%
[3]
  kinase still bound, per cent of control: 49%
EPHA5 (human)
  kinase still bound, per cent of control: 100%
EPHB4 (human)
  kinase still bound, per cent of control: 100%
ERBB2 (human)
  kinase still bound, per cent of control: 57%
FGFR1 (human)
  kinase still bound, per cent of control: 100%
FGFR2 (human)
  kinase still bound, per cent of control: 100%
[4]
  kinase still bound, per cent of control: 24%
LCK (human)
  kinase still bound, per cent of control: 100%
MAP2K1 (human)
  kinase still bound, per cent of control: 55%
MAP3K3 (human)
  kinase still bound, per cent of control: 9.9%
MAPK1 (human)
  kinase still bound, per cent of control: 97%
MAPK9 (human)
  kinase still bound, per cent of control: 100%
MARK2 (human)
  kinase still bound, per cent of control: 60%
MARK4 (human)
  kinase still bound, per cent of control: 100%
MLTK (human)
  kinase still bound, per cent of control: 92%
MST4 (human)
  kinase still bound, per cent of control: 80%
MYLK2 (human)
  kinase still bound, per cent of control: 14%
NEK1 (human)
  kinase still bound, per cent of control: 73%
PAK4 (human)
  kinase still bound, per cent of control: 98%
PRKD2 (human)
  kinase still bound, per cent of control: 8.3%
PRKG1 (human)
  kinase still bound, per cent of control: 100%
PRKX (human)
  kinase still bound, per cent of control: 100%
SGK110 (human)
  kinase still bound, per cent of control: 100%
SIK2 (human)
  kinase still bound, per cent of control: 76%
STK10 (human)
  kinase still bound, per cent of control: 33%
STK32C (human)
  kinase still bound, per cent of control: 100%
STK36 (human)
  kinase still bound, per cent of control: 85%
STK38L (human)
  kinase still bound, per cent of control: 92%
TESK1 (human)
  kinase still bound, per cent of control: 100%
TLK2 (human)
  kinase still bound, per cent of control: 99%
TNK2 (human)
  kinase still bound, per cent of control: 100%
TNNI3K (human)
  kinase still bound, per cent of control: 96%
TSSK1B (human)
  kinase still bound, per cent of control: 2.9%

## N=C1NC(=O)/C(=C/c2ccc(-c3csc4ccccc34)o2)S1
DDR1 (human)
  kinase still bound, per cent of control: 33%
MAPK1 (human)
  kinase still bound, per cent of control: 29%
